In ChEMBL document CHEMBL1128988, “The antiinfluenza activity of pyrrolo[2,3-d]pyrimidines” (Bioorg Med Chem Lett, 1996):

How the values were obtained:
Influenza A virus = assay: In vitro antiinfluenza activity against influenza virus A strain; format: functional, organism-based
Influenza B virus = assay: In vitro antiinfluenza activity against influenza virus B strain; format: functional, organism-based
[1] = Lethal dose against mice upon intraperitoneal administration; format: toxicity; details: mouse, in vivo, ip
[2] = Lethal dose against mice upon oral administration; format: toxicity; details: mouse, in vivo

Compound	IC50 (Influenza A virus)	IC50 (Influenza B virus)	LD50 [1]	LD50 [2]
Cc1nc(NCc2ccccc2)c2cc[nH]c2n1 [ROLODINE]	> 100 µM	–	–	–
NC12CC3CC(CC(C3)C1)C2 [AMANTADINE]	1.25 µM	–	–	–
Cc1nc2nccc-2c(NCc2cccc(N(C)C)c2)[nH]1	18 µM	< 100 µM	–	–
Cc1nc2nccc-2c(NCCc2cccc(N(C)C)c2)[nH]1	55 µM	–	–	–
Cc1nc(NCCc2cccc(N3CCCC3)c2)c2cc[nH]c2n1	23.9 µM	–	–	–
Cc1nc(NCCc2ccccc2)c2cc[nH]c2n1	38.4 µM	–	–	–
Cc1nc(NCc2cccc(N3CCCCC3)c2)c2cc[nH]c2n1	2.3 µM	5.1 µM	> 500 mg/kg	> 500 mg/kg
Cc1nc(NCc2cccc(N3CCCC3)c2)c2cc[nH]c2n1	4.8 µM	6.4 µM	–	–
Cc1nc(NCCc2cccc(N3CCCCC3)c2)c2cc[nH]c2n1	28.6 µM	–	–	–
